Results reported in BigSolDB 2.1.

O=C(O)c1cccc(C(=O)O)c1
Settings | solubility (mole fraction)
in ethanol, 294.35 K | 0.004
in ethanol, 296.95 K | 0.0042
in ethanol, 298.15 K | 0.0043
in ethanol, 300.55 K | 0.0047
in ethanol, 306.15 K | 0.0051
in ethanol, 308.85 K | 0.0053
in ethanol, 310.85 K | 0.0056
in ethanol, 313.65 K | 0.0063
in ethanol, 318.35 K | 0.0068
in ethanol, 320.45 K | 0.0072
in ethanol, 324.15 K | 0.0075
in ethanol, 326.75 K | 0.0078
in ethanol, 330.85 K | 0.0085
in ethanol, 331.75 K | 0.0089
in ethanol, 335.05 K | 0.0093
in isobutanol, 318.65 K | 0.0025
in isobutanol, 323.55 K | 0.0033
in isobutanol, 327.85 K | 0.004
in isobutanol, 331.05 K | 0.0047
in isobutanol, 336.15 K | 0.0055
in isobutanol, 340.05 K | 0.0061
in isobutanol, 343.05 K | 0.0066
in isobutanol, 346.65 K | 0.0072
in isobutanol, 348.95 K | 0.0079
in isobutanol, 351.05 K | 0.0085
in isobutanol, 355.05 K | 0.0092
in isobutanol, 356.05 K | 0.0098
in isobutanol, 360.75 K | 0.0108
in isopropanol, 304.65 K | 0.0046
in isopropanol, 308.45 K | 0.0052
in isopropanol, 310.95 K | 0.0057
in isopropanol, 316.45 K | 0.0063
in isopropanol, 319.45 K | 0.0068
in isopropanol, 322.15 K | 0.0075
in isopropanol, 324.85 K | 0.0081
in isopropanol, 326.95 K | 0.0086
in isopropanol, 331.35 K | 0.0095
in isopropanol, 334.35 K | 0.0103
in isopropanol, 337.55 K | 0.0111
in isopropanol, 342.25 K | 0.012
in isopropanol, 344.25 K | 0.0126
in methanol, 288.35 K | 0.0029
in methanol, 292.45 K | 0.0031
in methanol, 295.65 K | 0.0032
in methanol, 298.65 K | 0.0035
in methanol, 299.65 K | 0.0036
in methanol, 302.15 K | 0.004
in methanol, 305.25 K | 0.0044
in methanol, 308.45 K | 0.0047
in methanol, 311.85 K | 0.0049
in methanol, 313.45 K | 0.0051
in methanol, 316.65 K | 0.0056
in methanol, 319.25 K | 0.0056
in methanol, 320.15 K | 0.006
in methanol, 323.15 K | 0.0064
in methanol, 326.05 K | 0.0068
in methanol, 328.15 K | 0.0072
in n-butanol, 309.65 K | 0.0039
in n-butanol, 314.35 K | 0.0044
in n-butanol, 319.95 K | 0.0052
in n-butanol, 324.45 K | 0.0057
in n-butanol, 328.05 K | 0.0062
in n-butanol, 332.15 K | 0.007
in n-butanol, 335.25 K | 0.0076
in n-butanol, 338.05 K | 0.0081
in n-butanol, 340.95 K | 0.0091
in n-butanol, 345.45 K | 0.0099
in n-butanol, 347.95 K | 0.0104
in n-propanol, 303.75 K | 0.0033
in n-propanol, 305.65 K | 0.0039
in n-propanol, 311.65 K | 0.0043
in n-propanol, 315.35 K | 0.0049
in n-propanol, 318.85 K | 0.0054
in n-propanol, 322.55 K | 0.0059
in n-propanol, 326.65 K | 0.0064
in n-propanol, 330.45 K | 0.007
in n-propanol, 337.95 K | 0.0091
in n-propanol, 340.15 K | 0.0093
in n-propanol, 341.95 K | 0.01
in n-propanol, 345.95 K | 0.0113
in n-propanol, 348.15 K | 0.0122
in sec-butanol, 302.45 K | 0.0025
in sec-butanol, 306.35 K | 0.0033
in sec-butanol, 309.25 K | 0.004
in sec-butanol, 314.15 K | 0.0049
in sec-butanol, 317.65 K | 0.0057
in sec-butanol, 322.15 K | 0.0071
in sec-butanol, 326.25 K | 0.0085
in sec-butanol, 331.35 K | 0.0098
in sec-butanol, 339.35 K | 0.0117
in sec-butanol, 342.35 K | 0.0126
in tert-butanol, 303.65 K | 0.0026
in tert-butanol, 307.95 K | 0.0038
in tert-butanol, 312.15 K | 0.0047
in tert-butanol, 315.35 K | 0.0059
in tert-butanol, 318.35 K | 0.0073
in tert-butanol, 321.15 K | 0.0091
in tert-butanol, 324.55 K | 0.0106
in tert-butanol, 328.75 K | 0.0125
in tert-butanol, 331.65 K | 0.0141
in tert-butanol, 334.95 K | 0.016
in tert-butanol, 338.45 K | 0.0177
in tert-butanol, 342.65 K | 0.0194
in tert-butanol, 345.65 K | 0.0203
